Patent US20020114804A1, “A METHOD OF TREATING INFECTION OF SUTURES AND PROSTHETIC DEVICES” (priority 1996, published 2002)

Columns and labels:
Assay type in all cases: cell-based, human
[1] = test system: monocytes; assay: Monocyte migration through collagen I coated inserts; settings: collagen I alone, 24 h
Experimental: (§1) Cultured monocytes were prepared by allowing 10^7 total mononuclear cells, suspended in 10 ml of RMPI 1640 medium supplemented with 10% pooled human serum (1640+HS), or 10% autologous serum (1640+AS), to adhere to Falcon T-150 tissue culture Petri dishes for 2 h at 37° C. Non-adherent cells were removed by washing, leaving an adherent cell population consisting of greater than 98% monocytes as measured by their capacity to phagocytose IgG coated sheep red blood cells. For migration studies, monocytes were maintained in culture for 24 h in RPMI 1640+HS or AS, and detached from the dishes by gentle pipetting of 10 ml of ice cold phosphate buffered saline (without Ca^2+ or Mg^2+) containing 1.0 mM EDTA. The cells recovered were resuspended in RPMI-1640+HS as described (65).
Cell culture inserts containing polyethylene terephthalate filters, 8-μm pore size (Becton-Dickinson), were overlaid with 0.1 ml of Matrigel (20-25 μg protein/filter) (Collaborative Research, Bedford, Mass.), and incubated at room temperature until they dried. These Matrigel-coated filters were washed with phosphate buffered saline containing 1.0 mM Mg^2+ and 1.0 mM Ca^2+ (PBS). 0.1 ml of a PBS solution (pH 7.2) containing the indicated amount of purified chick brain tenascin was added to some of the inserts. The filters were incubated at room temperature until they dried. […]

[2] = test system: monocytes; assay: Monocyte migration through Matrigel or Matrigel/tenascin coated filters; settings: Matrigel alone
Text: Mononuclear cells were isolated by centrifugation of heparinized human blood on Ficoll-Hypaque gradients as described (65, 66). The mononuclear cell fraction was resuspended in RMPI 1640 medium supplemented with 10% pooled human serum or autologous serum and used immediately for monocyte migration studies. For some experiments, monocytes were obtained by centrifugation of whole blood or of white blood cells concentrated from a unit of blood (leukopak), on Nycodenz gradients as described (39). More than 90% of the nucleated cells obtained by this Nycodenz method were monocytes, as assessed by their ability to phagocytose IgG-coated red blood cells.
as §1
(§2) Cell culture inserts containing polyethylene terephthalate filters, 8-μm pore size (Becton-Dickinson), were overlaid with 0.1 ml of Matrigel (20-25 μg protein/filter) (Collaborative Research, Bedford, Mass.), and incubated at room temperature until they dried. These Matrigel-coated filters were washed with phosphate buffered saline containing 1.0 mM Mg^2+ and 1.0 mM Ca^2+ (PBS). 0.1 ml of a PBS solution (pH 7.2) containing the indicated amount of purified chick brain tenascin was added to some of the inserts. The filters were incubated at room temperature until they dried. These protein-coated filters were washed again with PBS and used within 12 h for cell migration studies. To prepare collagen I-coated inserts, filters were coated with rat tail collagen I (ICN Biochemicals, Costa, Mesa, Calif.) (400 μg/ml in PBS), by adding 0.1 ml of this solution to an insert and incubating the inserts at room temperature for 24 h. Some of these collagen I-coated filters were then incubated with tenascin as described above.
Monocytes: Cell culture inserts were placed in 16 mm wells containing 0.5 mls of RPMI-1640+HS or AS in the presence or absence of a chemoattractant. 0.5 ml of RPMI-1640+HS or AS serum containing between 2-10×10^5 mononuclear phagocytes was added to the upper chamber of the inserts and the inserts were placed in a humidified CO2 incubator at 37° C. After 24 h the medium in the lower chamber was recovered and its cell content assayed using either a Coulter counter or a hemocytometer. […] Cell counts reported are the average number of cells recovered from the medium in the lower compartment of chemotaxis chambers. Over 90% of the cells in the lower chamber were identified as monocytes based on their morphology, their capacity to phagocytose IgG coated sheep red cells, and their staining with fluorescein-conjugated anti α,β monoclonal antibody (Oncogene Sciences, Uniondale, N.Y.). Unless otherwise indicated, all values are the average of duplicate samples run in parallel in a representative experiment. Each experiment was repeated at least three times with similar results.

[3] = test system: PMNs; assay: PMN migration through plasma clots (plasma gels); settings: chemoattractant in lower compartment, 6 hrs
Experimental: (§3) Becton-Dickinson cell culture inserts (pore sizes 3 or 8 μm: Franklin Lakes, N.J.) were overlaid with the following proteins:
Clotted Plasma: Whole blood was collected and the cellular components were removed by centrifugation. The resulting plasma was mixed with an equal volume of PBS, and 100 μl of this mixture was placed into each insert containing thrombin and allowed to clot as described above. One unit of PPACK in 100 μl PBS then was added and the inserts were washed with 250 μl of PBS.
(§4) PMNs were prepared from fresh heparinized blood from healthy adult volunteers by sedimentation on Ficoll-Hypaque gradients. Contaminating red blood cells were removed by hypotonic lysis, as described (7). The purity of PMN isolated by this method is >95% as determined by Wright-Giemsa staining (7). 10^6 PMNs in 250 μl of PBS supplemented with 5.5 mM glucose and 0.1% human serum albumin (PBSG-HSA), were placed in the upper compartment of each insert and incubated for 0-6 hrs at 37° C. in a humidified atmosphere containing 95% air/5% CO2. […] The medium in each lower compartment was collected and its content of PMNs was determined using either a Coulter Counter or a hemocytometer. […] Counts are expressed as the average number of PMNs that migrated into the lower compartment. […]

[4] = test system: PMNs; assay: PMN migration through filters coated with fibrinogen or fibronectin
Experimental: as §3
Fibrinogen or fibronectin: 0.1 ml of PBS containing 100 μg/ml fibrinogen or fibronectin (New York Blood Center, New York, N.Y.), was placed into each insert (pore size 3 μm). Inserts were incubated at 37° C. for 60 min and washed with 250 μl of PBS. Filters coated with fibrinogen or fibronectin were diffusely fluorescent as visualized by epifluorescent microscopy when incubated with the corresponding antibody [fluorescein-labeled anti-fibrinogen, or anti-fibronectin monoclonal antibodies (Cappel, Malvern, Pa.)], while uncoated filters, or filters incubated with fluorescein-labeled antibody of the opposite specificity, were not.
as §4, with “(7).” for “(7). 10^6 PMNs in 250 μl of PBS supplemented with 5.5 mM glucose and 0.1% human serum albumin (PBSG-HSA), were placed in the upper compartment of each insert and incubated for 0-6 hrs at 37° C. in a humidified atmosphere containing 95% air/5% CO2.”

[5] = test system: PMNs; assay: PMN migration through gels of Matrigel or collagen IV; settings: added to the bottom chamber
Experimental: as §3
Collagen type IV and Matrigel matrices: 0.1 ml PBS containing 100 μg human placental collagen IV (Fluka Chemical Corp., Ronkonkoma, N.Y.), or 80 μg of reconstituted basement membrane proteins (Matrigel, Collaborative Research, Bedford, Mass.), was placed into each insert and allowed to gel at room temperature for 24 hrs.
as §4, with “CO2. At the times and concentrations specified, chemoattractants/cytokines were added to the top or bottom compartment in 250 μl of PBSG-HSA.” for “CO2.”

[6] = test system: PMNs; assay: PMN migration through Matrigel or Matrigel/tenascin coated filters; settings: Matrigel alone
Experimental: Polymorphonuclear leukocytes (PMN), were prepared as described (7) from heparinized human blood by sedimentation on Ficoll-Hypaque gradients. Contaminating red blood cells were removed by hypotonic lysis. The purity of PMN isolated by this method was >95% as determined by Wright-Giemsa staining.
as §2
PMN: 250 μl of PBS [supplemented with 5.5 mM glucose and 0.1% human serum albumin (HSA) (PBSG-HSA)] containing 1×10^6 PMNs was placed in the upper compartment of each insert. 250 μl of PBSG-HSA with or without chemoattractant, as indicated, was added to the bottom compartment. The inserts were incubated for about 4 h at 37° C. in a humidified atmosphere containing 95% air/5% CO2. […] The medium in the lower compartment was collected and its content of PMN determined using a Coulter Counter, as described in Example 1.

CCCCC/C=C\C[C@@H](O)/C=C/C=C/C=C\[C@@H](O)CCCC(=O)O [LTB4, leukotriene B4]
Monocytes that migrated through inserts coated with collagen I [1]: 18% | Cultured monocytes that migrated through Matrigel-coated inserts [2]: ~15% | Freshly isolated human monocytes that migrated through Matrigel-coated inserts [2]: About 20% | PMN migration through plasma gels formed by thrombin treatment of human plasma [3]: migrated | PMN migration through filters with adsorbed fibrinogen or fibronectin [4]: promoted PMN migration | PMN migration through gels of Matrigel or collagen IV [5]: stimulated PMN migration | PMNs that migrated through Matrigel-coated inserts [6]: ~10%
